Patent publication US11420943B2, “Peptide derivatives and therapeutic activity thereof” (FLAMMA S.P.A., priority 2017, dated 2022)
Read-outs that look alike come from different tables or passages of the source. Where a SMILES comes first, the peptide text is derived from it. [ ]: non-standard residue; d: D form. Aib = CC(C)(N)C(=O)O

What was measured:
[1] = Carbonyl-quenching activity towards HNE in vitro (residual HNE by reverse-phase chromatography); assay type: biochemical; conditions: for ACTIVITY (CARNOSINE UNIT) 1 h / HNE CONSUMPTION (%) 1 h: 1 h incubation; for ACTIVITY (CARNOSINE UNIT) 1 h / HNE CONSUMPTION (%) 1 h / ACTIVITY (CARNOSINE UNIT) 3 h / HNE CONSUMPTION (%) 3 h: HNE 50 μM, compound 1 mM, phosphate buffer 10 mM, pH 7.4, 37° C.; for ACTIVITY (CARNOSINE UNIT) 3 h / HNE CONSUMPTION (%) 3 h: 3 h incubation
Description: (§1) The pharmacological activity of the compounds according to the invention was determined in vitro by evaluating their carbonyl-quenching activity towards 4-hydroxy nonenal (HNE), which is known for its involvement in numerous disorders. Said activity was compared with that of L-carnosine, a compound known as a carbonyl quencher in vitro but having limited metabolic stability caused by serum carnosinase. The metabolic stability of a particularly interesting compound was also evaluated in human serum after 1 and 2 hours.
The activity was evaluated one and three hours after incubation, determining the residual HNE content by reverse-phase chromatography as previously described by Aldini G. et al. [Biochem Biophys Res Commun. 2002 Nov. 15; 298 (5):699-706]. The carbonyl-quenching activity is evaluated on the basis of the percentage of HNE reacted, compared with the HNE content in the absence of the molecule to be tested.

[2] = reported in WO2011/080139, same test; cited from earlier work
[3] = Stability in human serum (HPLC-MS recovery); assay type: in vitro ADME; conditions: 37° C.
Description: as §1
The samples taken from each matrix, suitably treated, were analysed by HPLC-MS, obtaining recovery after 1 h and 2 h.

Compound	ACTIVITY (CARNOSINE UNIT) 1 h [1]	HNE CONSUMPTION (%) 1 h [1]	ACTIVITY (CARNOSINE UNIT) 3 h [1]	HNE CONSUMPTION (%) 3 h [1]	carbonyl-quenching activity, times greater than that of L-carnosine [2]	carbonyl-quenching activity, times greater than that of L-carnosine ([1]; see Table I)	Stability in plasma (% residual amount) 1 h ([3]; 1 h)	Stability in plasma (% residual amount) 2 h ([3]; 2 h)
NCC(F)(F)C(=O)N[C@@H](Cc1c[nH]cn1)C(=O)O [FLM-07-ACI, N-(3-amino-2,2-difluoropropanoyl)-L-histidine]	0.46 CARNOSINE UNIT	7.88 ± 5.41%	0.69 CARNOSINE UNIT	29.42 ± 6.42%	–	–	–	–
CC(C)(N)C(=O)N[C@H](CO)Cc1c[nH]cn1 [FLM-05-OLO, (S)-2-amino-N-(1-hydroxy-3-(1H-imidazol-4-yl)propan-2-yl)-2-methylpropanamide]	0.38 CARNOSINE UNIT	6.40 ± 1.72%	0.45 CARNOSINE UNIT	19.44 ± 2.36%	–	–	–	–
NCC1(C(=O)N[C@@H](Cc2c[nH]cn2)C(=O)O)CCCCC1 [FLM-14-ACI]	1.71 CARNOSINE UNIT	29.10 ± 2.97%	1.36 CARNOSINE UNIT	58.03 ± 2.37%	–	–	–	–
NCC(F)(F)C(=O)N[C@H](CO)Cc1c[nH]cn1 [FLM-07-OLO, (S)-3-amino-2,2-difluoro-N-(1-hydroxy-3-(1H-imidazol-4-yl)propan-2-yl)propanamide]	1 CARNOSINE UNIT	17.07 ± 1.76%	0.82 CARNOSINE UNIT	34.93 ± 0.58%	–	–	–	–
NCCC(=O)N[C@@H](Cc1cnc[nH]1)C(=O)O [CARNOSINE, L-carnosine, reference compound]	1.00 CARNOSINE UNIT	17.05 ± 1.24%	1.00 CARNOSINE UNIT	42.66 ± 0.89%	–	–	–	–
CC(C)(CN)C(=O)N[C@@H](Cc1c[nH]cn1)C(=O)O [FLM-04-ACI, N-(3-amino-2,2-dimethylpropanoyl)-L-histidine]	1.76 CARNOSINE UNIT	30.06 ± 4.68%	1.51 CARNOSINE UNIT	64.44 ± 4.37%	–	–	–	–
NCC1(C(=O)N[C@H](CO)Cc2c[nH]cn2)CCC1 [FLM-10-OLO, (S)-1-(aminomethyl)-N-(1-hydroxy-3-(1H-imidazol-4-yl)propan-2-yl)cyclobutanecarboxamide]	2.82 CARNOSINE UNIT	47.68 ± 3.02%	2.08 CARNOSINE UNIT	84.63 ± 2.70%	–	–	–	–
CC(C)(CCN)C(=O)N[C@H](CO)Cc1c[nH]cn1 [FLM-13-OLO, (S)-4-amino-N-(1-hydroxy-3-(1H-imidazol-4-yl)propan-2-yl)-2,2-dimethylbutanamide]	0.62 CARNOSINE UNIT	10.54 ± 10.04%	0.54 CARNOSINE UNIT	23.05 ± 12.28%	–	–	–	–
NCC1(C(=O)N[C@@H](Cc2c[nH]cn2)C(=O)O)CCC1 [FLM-10-ACI]	1.06 CARNOSINE UNIT	17.89 ± 1.97%	1.11 CARNOSINE UNIT	45.04 ± 2.94%	–	–	–	–
CC(C)(N)C(=O)N[C@@H](Cc1c[nH]cn1)C(=O)O [FLM-05-ACI, N-(2-amino-2-methylpropanoyl)-L-histidine] (H-[Aib]-His-OH)	0.33 CARNOSINE UNIT	5.58 ± 7.50%	0.37 CARNOSINE UNIT	15.84 ± 10.65%	–	–	–	–
NCC1(C(=O)N[C@H](CO)Cc2c[nH]cn2)CCCCC1 [FLM-14-OLO, (S)-1-(aminomethyl)-N-(1-hydroxy-3-(1H-imidazol-4-yl)propan-2-yl)cyclohexanecarboxamide]	2.84 CARNOSINE UNIT	48.36 ± 6.22%	1.96 CARNOSINE UNIT	83.50 ± 5.85%	–	–	–	–
CC(C)(CCN)C(=O)N[C@@H](Cc1c[nH]cn1)C(=O)O [FLM-13-ACI, N-(4-amino-2,2-dimethylbutanoyl)-L-histidine]	0.69 CARNOSINE UNIT	11.77 ± 6.79%	0.48 CARNOSINE UNIT	20.43 ± 7.94%	–	–	–	–
CC(C)(N)CC(=O)N[C@H](CO)Cc1c[nH]cn1 [FLM-02-OLO, (S)-3-amino-N-(1-hydroxy-3-(1H-imidazol-4-yl)propan-2-yl)-3,3-dimethylpropanamide]	0.25 CARNOSINE UNIT	4.09 ± 2.61%	0.24 CARNOSINE UNIT	10.50 ± 2.24%	–	–	–	–
NCC1(C(=O)N[C@@H](Cc2c[nH]cn2)C(=O)O)CC1 [FLM-09-ACI]	0.81 CARNOSINE UNIT	13.70 ± 0.83%	0.89 CARNOSINE UNIT	36.11 ± 2.87%	–	–	–	–
NCC1(C(=O)N[C@H](CO)Cc2c[nH]cn2)CC1 [FLM-09-OLO, (S)-1-(aminomethyl)-N-(1-hydroxy-3-(1H-imidazol-4-yl)propan-2-yl)cyclopropanecarboxamide]	1.55 CARNOSINE UNIT	26.21 ± 1.04%	1.45 CARNOSINE UNIT	59.09 ± 1.49%	–	–	–	–
NCCC(=O)N[C@H](CO)Cc1cnc[nH]1 [3-amino-N-[(1S)-2-hydroxy-1-(1H-imidazol-5-yl-methyl)ethyl]propanamide]	–	–	–	–	1.6 times	–	–	–
NCC1(C(=O)N[C@@H](Cc2c[nH]cn2)C(=O)O)CCCC1 [FLM-11-ACI]	1.41 CARNOSINE UNIT	23.82 ± 1.55%	1.31 CARNOSINE UNIT	53.54 ± 1.10%	–	–	–	–
Cn1cncc1C[C@@H](CO)NC(=O)C(C)(C)CN [FLM-12-OLO, (S)-3-amino-N-(1-hydroxy-3-(1-methyl-1H-imidazol-5-yl)propan-2-yl)-2,2-dimethylpropanamide]	2.98 CARNOSINE UNIT	50.77 ± 3.84%	1.64 CARNOSINE UNIT	70.08 ± 2.98%	–	–	–	–
CC(C)(CN)C(=O)N[C@@H](Cc1c[nH]cn1)C(=O)O [FLM-12-ACI, N-(3-amino-2,2-dimethylpropanoyl)-L-histidine]	1.58 CARNOSINE UNIT	27.07 ± 9.77%	1.20 CARNOSINE UNIT	51.35 ± 9.22%	–	–	–	–
CC(C)(CN)C(=O)N[C@H](CO)Cc1c[nH]cn1 [FLM-04-OLO, (S)-3-amino-N-(1-hydroxy-3-(1H-imidazol-4-yl)propan-2-yl)-2,2-dimethylpropanamide]	3.13 CARNOSINE UNIT	52.14 ± 5.56%	2.00 CARNOSINE UNIT	86.47 ± 2.73%	–	3.1 times	101.78 ± 16.20%	100.34 ± 9.46%
CC(C)(N)CC(=O)N[C@@H](Cc1c[nH]cn1)C(=O)O [FLM-02-ACI, N-(3-amino-3,3-dimethylpropanoyl)-L-histidine]	0.02 CARNOSINE UNIT	0.40 ± 1.73%	0.14 CARNOSINE UNIT	6.05 ± 1.66%	–	–	–	–
NCC1(C(=O)N[C@H](CO)Cc2c[nH]cn2)CCCC1 [FLM-11-OLO, (S)-1-(aminomethyl)-N-(1-hydroxy-3-(1H-imidazol-4-yl)propan-2-yl)cyclopentanecarboxamide]	2.82 CARNOSINE UNIT	47.56 ± 0.69%	2.06 CARNOSINE UNIT	83.90 ± 0.33%	–	–	–	–
